Activity calls are given as the source filed them.
Tests used:
INS1 = assay: INS-1E survival protection against cytokine death – cell-based, luminescence, retest, dose response (AID 449756); format: functional; settings: Rattus norvegicus;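 note: cell death triggered by IL-1 beta plus TNF-alpha plus IFN-gamma mixture; protective hits raise ATP signal compared with cytokine alone wells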
[1] = non-specific 3'UTR reporter inhibition in Clone20-Shn3RL – cell-based, Renilla luciferase, cherry-picked, counter-screen for Shn3 inhibitor project, dose response (AID 624133); format: functional
[2] = Trypanosoma cruzi growth suppression in host cells – NIH3T3 host cells, beta-gal luminescence, confirmation (AID 2044); format: functional, cell-based;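 note: intracellular parasites grown in NIH/3T3 mouse fibroblasts as host cells; luminescent beta-galactosidase reporter signal from transgenic T. cruzi replicating inside host cells; inhibitors lower the luminescence signal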
HEK293 [3] = assay: HEK293T cell viability loss, resazurin readout – resazurin fluorescence, cytotoxicity control for NF-kB activator project, SAR follow-up (AID 493251); format: functional, cell-based; settings: Homo sapiens
Jurkat = assay: SAR Analysis of small molecule inhibitors of T-cell specific antigen receptor-induced NF-kB activation in a Jurkat cell line using a luminescence assay - Set 2. [Related pubchem assays (depositor defined):AID435003, AID435012, AID465]; format: functional, cell-based; settings: Homo sapiens
[4] = loss of viability in HepG2 cells – cell-based, CellTiter-Glo, cherry-picked, cytotoxicity control for Shn3 inhibitor project, dose response (AID 624134); format: functional
cells [5] = format: functional, cell-based
[6] = reduction of Shn3 3'UTR-driven luciferase in osteoblasts – cell-based, Clone20 osteoblasts, firefly luciferase, cherry-picked, dose response (AID 624132); format: functional;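 note: firefly luciferase luminescence from reporter carrying the Shn3 3'UTR in osteoblasts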
HEK293 [7] = assay: SAR Analysis of small molecule inhibitors of T-cell specific antigen receptor-induced NF-kB activation in a HEK-293T cell line using a luminescence assay - Set 2. [Related pubchem assays (depositor defined):AID435003, AID435012, AID489026]; format: functional, cell-based; settings: Homo sapiens
BJ [8] = assay: BJ-TERT fibroblast viability loss – cell-based, RAS-independent, luminescence, dose response (AID 1933); format: functional; settings: Homo sapiens
[9] = DRD fibroblast viability loss – cell-based, non-viral oncogenic, luminescence, dose response (AID 1934); format: functional; settings: Homo sapiens
[10] = target: Heat shock protein HSP 90-alpha (Homo sapiens, UniProt P07900); format: functional, organism-based
[11] = HEK-293T viability loss after treatment – luminescence, T-cell screen hits, cytotoxicity control for TCR NF-kB inhibitor project, dose response (AID 489026); format: functional, cell-based;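 note: cells exposed to compound about 14 hours before the viability readout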
[12] = NIH3T3 cell viability loss – ATP luminescence, mouse fibroblasts, counter-screen, dose response (AID 2010); format: functional, cell-based;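 note: cells exposed to compound for about 90 hours before reading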
BJ [13] = assay: BJ-TERT-LT-ST fibroblast viability loss – cell-based, RAS-independent, luminescence, dose response (AID 1935); format: functional; settings: Homo sapiens;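 note: BJ fibroblasts immortalized with TERT plus LT and ST oncogenes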
HEK293 [14] = assay: EBV LMP1 TES2 canonical NF-kB signalling blockers – cell-based, HEK293, luciferase, cherry-pick, dose response (AID 588343); format: functional; settings: Homo sapiens
Exodeoxyribonuclease V = Exodeoxyribonuclease V (Escherichia coli (strain K12), UniProt P04993+P07648+P08394); assay: RecBCD inhibition via phage-restricted bacterial growth – absorbance, V66 E. coli, mutant T4 phage, counter-screen for AddAB inhibitor project, dose response (AID 492957); format: functional, cell-based, Escherichia coli str. K-12 substr. MG1655
Exodeoxyribonuclease V, sequence (P04993 whole entry): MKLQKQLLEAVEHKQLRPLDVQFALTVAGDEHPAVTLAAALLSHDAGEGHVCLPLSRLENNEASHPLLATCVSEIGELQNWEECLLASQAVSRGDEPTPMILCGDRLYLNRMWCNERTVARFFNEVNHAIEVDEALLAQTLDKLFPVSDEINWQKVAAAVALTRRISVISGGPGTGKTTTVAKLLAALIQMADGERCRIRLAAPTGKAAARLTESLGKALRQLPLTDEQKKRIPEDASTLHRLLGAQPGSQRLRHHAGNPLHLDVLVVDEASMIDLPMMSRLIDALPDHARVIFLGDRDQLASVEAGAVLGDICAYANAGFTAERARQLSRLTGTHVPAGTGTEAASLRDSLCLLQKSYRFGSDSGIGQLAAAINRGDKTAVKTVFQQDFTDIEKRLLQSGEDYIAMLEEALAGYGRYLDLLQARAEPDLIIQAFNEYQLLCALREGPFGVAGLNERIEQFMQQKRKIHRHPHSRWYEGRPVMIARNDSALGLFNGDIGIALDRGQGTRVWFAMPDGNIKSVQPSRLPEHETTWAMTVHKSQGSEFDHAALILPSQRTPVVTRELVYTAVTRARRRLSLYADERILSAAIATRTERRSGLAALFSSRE
Exodeoxyribonuclease V, sequence (P07648 whole entry): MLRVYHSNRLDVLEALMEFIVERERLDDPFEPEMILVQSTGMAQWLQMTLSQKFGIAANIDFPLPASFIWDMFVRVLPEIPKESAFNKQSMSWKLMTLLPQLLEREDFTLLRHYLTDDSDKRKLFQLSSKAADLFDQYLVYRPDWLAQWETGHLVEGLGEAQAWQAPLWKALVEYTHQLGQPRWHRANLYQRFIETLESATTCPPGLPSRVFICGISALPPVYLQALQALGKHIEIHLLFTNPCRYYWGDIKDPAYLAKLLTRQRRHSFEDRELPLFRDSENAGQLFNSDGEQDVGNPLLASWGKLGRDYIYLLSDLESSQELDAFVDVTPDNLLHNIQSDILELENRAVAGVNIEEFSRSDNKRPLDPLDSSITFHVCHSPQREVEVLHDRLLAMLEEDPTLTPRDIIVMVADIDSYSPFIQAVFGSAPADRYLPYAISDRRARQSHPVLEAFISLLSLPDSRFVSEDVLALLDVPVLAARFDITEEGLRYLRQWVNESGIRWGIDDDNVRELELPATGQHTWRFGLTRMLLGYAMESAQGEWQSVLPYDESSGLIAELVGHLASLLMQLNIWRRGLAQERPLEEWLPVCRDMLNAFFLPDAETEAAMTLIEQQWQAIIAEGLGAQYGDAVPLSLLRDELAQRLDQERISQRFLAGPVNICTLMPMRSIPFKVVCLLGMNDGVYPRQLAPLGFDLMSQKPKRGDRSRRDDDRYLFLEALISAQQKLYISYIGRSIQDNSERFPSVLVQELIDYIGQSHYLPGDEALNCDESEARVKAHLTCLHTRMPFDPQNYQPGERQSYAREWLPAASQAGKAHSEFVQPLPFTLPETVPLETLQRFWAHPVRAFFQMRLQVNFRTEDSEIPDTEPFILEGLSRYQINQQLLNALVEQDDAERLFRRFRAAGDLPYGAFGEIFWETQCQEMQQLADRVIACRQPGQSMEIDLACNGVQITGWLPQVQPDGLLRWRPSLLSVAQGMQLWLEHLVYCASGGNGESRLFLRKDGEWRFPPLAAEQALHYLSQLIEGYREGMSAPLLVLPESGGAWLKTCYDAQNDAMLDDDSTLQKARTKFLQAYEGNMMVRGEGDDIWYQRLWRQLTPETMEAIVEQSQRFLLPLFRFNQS
Exodeoxyribonuclease V, sequence (P08394 whole entry): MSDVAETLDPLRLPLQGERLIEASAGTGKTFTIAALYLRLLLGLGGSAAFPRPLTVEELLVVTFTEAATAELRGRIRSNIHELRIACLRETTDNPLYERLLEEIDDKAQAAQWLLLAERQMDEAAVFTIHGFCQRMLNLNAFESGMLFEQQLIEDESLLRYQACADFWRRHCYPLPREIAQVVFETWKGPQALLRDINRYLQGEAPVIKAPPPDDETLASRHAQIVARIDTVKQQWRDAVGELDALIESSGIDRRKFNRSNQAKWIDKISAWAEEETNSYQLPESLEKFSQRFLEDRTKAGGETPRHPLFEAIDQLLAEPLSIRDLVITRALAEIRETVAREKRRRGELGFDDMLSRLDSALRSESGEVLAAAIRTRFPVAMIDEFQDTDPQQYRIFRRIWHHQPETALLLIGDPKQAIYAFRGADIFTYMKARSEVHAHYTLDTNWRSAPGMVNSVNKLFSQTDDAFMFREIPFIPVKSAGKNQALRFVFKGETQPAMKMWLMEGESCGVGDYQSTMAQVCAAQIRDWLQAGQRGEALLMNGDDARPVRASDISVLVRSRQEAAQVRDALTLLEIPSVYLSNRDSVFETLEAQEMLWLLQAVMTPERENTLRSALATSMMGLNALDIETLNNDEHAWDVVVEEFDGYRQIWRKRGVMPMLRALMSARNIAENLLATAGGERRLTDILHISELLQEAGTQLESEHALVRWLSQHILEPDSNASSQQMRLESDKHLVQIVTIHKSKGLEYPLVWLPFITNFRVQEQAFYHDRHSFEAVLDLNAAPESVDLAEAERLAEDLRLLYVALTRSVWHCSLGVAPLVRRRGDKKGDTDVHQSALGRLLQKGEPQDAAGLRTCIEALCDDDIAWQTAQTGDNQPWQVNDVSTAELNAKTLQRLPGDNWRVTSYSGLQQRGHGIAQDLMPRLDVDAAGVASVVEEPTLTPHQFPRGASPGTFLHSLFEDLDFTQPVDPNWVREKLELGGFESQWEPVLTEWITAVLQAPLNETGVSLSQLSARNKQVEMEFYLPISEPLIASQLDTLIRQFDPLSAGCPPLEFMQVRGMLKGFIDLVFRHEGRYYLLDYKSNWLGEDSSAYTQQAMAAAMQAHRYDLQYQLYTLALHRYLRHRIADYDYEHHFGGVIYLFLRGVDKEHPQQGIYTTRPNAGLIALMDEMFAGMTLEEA

[15] = Luminescence-based dose response cell-based high throughput screening assay for cytotoxic compounds using the IEC-6 intestinal epithelial cell line. [Related pubchem assays: 1858 (Summary AID.), 1825 (Counterscreen.), 1907 (Confirmation screen.)]; format: functional
cells [16] = format: functional, cell-based; remark: listed apart in the source
[17] = Counterscreen for AddAB inhibitors: absorbance-based bacterial cell-based high throughput dose response assay for inhibitors of bacterial viability. [Related pubchem assays (depositor defined):AID435030, AID449728, AID449731, AID488942, AID488955, AID488956]; format: functional
Paired box protein Pax-8 = Paired box protein Pax-8 (Homo sapiens, UniProt Q06710); assay: PAX8 transcriptional activity inhibition in RMG-I – RMG-I cells, luciferase, cherry-pick, dose response (AID 687027); format: functional, cell-based;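 note: luciferase reporter driven by Pax8 target thyroperoxidase promoter measured by SteadyGlo luminescence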
Paired box protein Pax-8, sequence (Q06710 whole entry): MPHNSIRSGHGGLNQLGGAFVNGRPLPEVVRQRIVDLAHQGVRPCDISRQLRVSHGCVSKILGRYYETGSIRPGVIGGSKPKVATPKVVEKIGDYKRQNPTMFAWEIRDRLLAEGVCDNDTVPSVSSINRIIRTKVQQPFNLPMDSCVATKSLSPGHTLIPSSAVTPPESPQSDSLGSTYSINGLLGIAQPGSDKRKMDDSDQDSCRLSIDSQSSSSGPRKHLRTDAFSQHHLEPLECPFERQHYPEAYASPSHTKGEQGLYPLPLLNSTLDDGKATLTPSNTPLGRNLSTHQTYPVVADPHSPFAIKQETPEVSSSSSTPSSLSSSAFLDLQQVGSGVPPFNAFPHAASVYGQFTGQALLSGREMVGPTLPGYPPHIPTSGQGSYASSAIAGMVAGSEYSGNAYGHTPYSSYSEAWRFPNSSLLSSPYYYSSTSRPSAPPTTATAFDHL

BJ [18] = assay: cells; format: functional, cell-based; settings: Homo sapiens
Candida albicans [19] = assay: C. albicans growth inhibition with fluconazole – CaCi-2 strain, Alamar Blue, dry powder, set 4, dose response (AID 488943); format: functional, organism-based
Candida albicans [20] = assay: resistant Candida growth with fluconazole co-treatment – CaCi-8 strain, Alamar Blue, dry powder, set 2, dose response (AID 488909); format: functional, organism-based
Candida albicans [21] = assay: fluconazole-resistant Candida strain growth inhibitors – CaCi-8 strain, dry powder, set 4, dose response (AID 488950); format: functional, organism-based
DNA topoisomerase = DNA topoisomerase (Yersinia pestis, UniProt A0A2S9PM60); assay: Yersinia topoisomerase I cleavage product accumulation – biochemical, cherry-pick, dose response (AID 588525)
DNA topoisomerase, sequence (A0A2S9PM60 whole entry): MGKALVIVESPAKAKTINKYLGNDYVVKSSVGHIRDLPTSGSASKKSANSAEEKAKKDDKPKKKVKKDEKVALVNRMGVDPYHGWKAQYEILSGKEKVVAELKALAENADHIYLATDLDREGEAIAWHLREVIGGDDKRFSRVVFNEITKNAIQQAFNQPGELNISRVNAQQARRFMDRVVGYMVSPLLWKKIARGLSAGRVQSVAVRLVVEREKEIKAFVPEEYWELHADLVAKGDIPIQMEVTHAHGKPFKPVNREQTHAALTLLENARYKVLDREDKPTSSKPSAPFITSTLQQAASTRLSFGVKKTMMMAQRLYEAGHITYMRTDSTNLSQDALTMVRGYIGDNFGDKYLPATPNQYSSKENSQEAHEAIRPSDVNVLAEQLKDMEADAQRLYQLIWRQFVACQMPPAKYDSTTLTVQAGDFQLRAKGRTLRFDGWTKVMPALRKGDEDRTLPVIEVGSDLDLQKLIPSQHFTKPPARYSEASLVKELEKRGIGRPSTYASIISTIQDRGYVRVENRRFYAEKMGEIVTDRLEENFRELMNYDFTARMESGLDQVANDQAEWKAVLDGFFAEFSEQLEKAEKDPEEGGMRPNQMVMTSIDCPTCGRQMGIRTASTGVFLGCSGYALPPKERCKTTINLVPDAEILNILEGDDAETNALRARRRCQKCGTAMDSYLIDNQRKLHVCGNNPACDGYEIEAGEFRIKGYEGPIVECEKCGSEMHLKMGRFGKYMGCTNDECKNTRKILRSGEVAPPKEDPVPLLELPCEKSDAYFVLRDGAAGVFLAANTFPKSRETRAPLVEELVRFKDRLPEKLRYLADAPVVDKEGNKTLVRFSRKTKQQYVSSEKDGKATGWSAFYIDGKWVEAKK

For `CC(=O)NC(c1ccc(C(C)C)cc1)c1ccc2cccnc2c1O` (stereo unspecified), which AC50 (INS1) is on record?
The AC50 was 0.494 µM (active).

What about the AC50 [1] of the same molecule?
Its AC50 is 0.35 µM (active).

What about the EC50 [2] of the same molecule?
The EC50 was 0.337 µM (active).

What about the IC50 (HEK293 [3]) of the same molecule?
The IC50 was 56.1 µM (inactive).

What about the IC50 (Jurkat) of the same molecule?
Its IC50 is 2.6 µM (active).

What about the AC50 [4] of the same molecule?
Its AC50 is 1.3 µM (active).

And the EC50 (cells [5])?
Its EC50 is 3.64 µM (active).

What about the AC50 [6] of the same molecule?
Its AC50 is 0.528 µM (active).

And the IC50 (HEK293 [7])?
Its IC50 is 5.24 µM (active).

And the EC50 (BJ [8])?
The EC50 was 0.958 µM (active).

What about the EC50 [9] of the same molecule?
Its EC50 is 8.18 µM (inconclusive).

And the AC50 [10]?
The AC50 was 3.58 µM (active).

And the IC50 [11]?
Its IC50 is > 80 µM (inactive).

What about the EC50 [12] of the same molecule?
The EC50 was 0.424 µM (active).

What about the EC50 (BJ [13]) of the same molecule?
Its EC50 is 8.47 µM (inconclusive).

And the AC50 (HEK293 [14])?
The AC50 was 5.2 µM (active).

And the IC50 (Exodeoxyribonuclease V)?
The IC50 was > 118 µM (inactive).

What about the IC50 [15] of the same molecule?
Its IC50 is 1.36 µM (active).

And the EC50 (cells [16])?
Its EC50 is > 350 µM (not active).

What about the IC50 [17] of the same molecule?
The IC50 was > 118 µM (inactive).

And the AC50 (Paired box protein Pax-8)?
The AC50 was 2.03 µM (active).

And the EC50 (BJ [18])?
Its EC50 is 2.29 µM (inconclusive).

With `COc1ccc2c(N3CCN(C(=O)c4ccc(Cl)cc4)CC3)ccnc2c1` as the molecule, how does the AC50 (Candida albicans [19]) read?
Its AC50 is 12.4 µM (active).

And the AC50 (Candida albicans [20])?
The AC50 was 18.4 µM (active).

What about the AC50 (Candida albicans [21]) of the same molecule?
Its AC50 is 8.86 µM (active).

With `Cc1c(C(=O)OCC(=O)N(CC(C)C)c2c(N)n(Cc3ccccc3)c(=O)[nH]c2=O)oc2ccccc12` as the molecule, how does the AC50 (DNA topoisomerase) read?
Its AC50 is 9.46 µM (active).
